Test results reported in patent US4186194A (priority 1973, dated 1980).

Key:
surrenalectomized mice = assay: Toxicity in surrenalectomized mice; assay type: in vivo; settings: 30 μg dosage
mastocytome = assay: Activation of macrophages in vitro (cytotoxicity with respect to the mastocytome); assay type: cell-based; settings: incubated directly with normal macrophages and with macrophages from an inflammatory peritoneal exsudate (both cases)
Experimental: The activity of the muramyl-dipeptide was measured by directly incubating it with both normal macrophages and macrophages originating from an inflammatory peritoneal exsudate.

[1] = system: tumor cells (mastocytome); assay: Antitumor effect of peritoneal macrophages activated in vivo; assay type: cell-based; settings: macrophages of mice injected intraperitoneally with 30 μg, recovered 4 days later, incubated with tumor cells
Experimental: The following test takes advantage of the finding made by several authors that macrophages become cytotoxic with respect to neoplasic cells, when they have previously been activated by immuno-adjuvant substances.
Two groups of three mice were injected intraperitoneally with 30 μg of each of the substances respectively. The mice were sacrificed 4 days later. There macrophages were recovered according to the technique of D. Juy, C. Bona and L. Chedid, C. R. Acad. Sc. Paris, 1974, 268, Serie D, 1859 and incubated in the presence of tumor cells (mastocytome).
The inhibition of the mastocytome increase was measured by reference to the reduced incorporation of radioactive thymidine as compared to that of controls.

guinea pigs = assay: Delayed hypersensitivity with respect to the substances in guinea pigs treated with Freund's complete adjuvant; assay type: in vivo, guinea pig; settings: 5 and 10 μg in the dermis of guinea pigs, three weeks after ovalbumine with FIA or FCA
Experimental: Three groups of guinea pigs were injected (in their foot pads) with 1 mg of ovalbumine together with:
(a) Freund's incomplete adjuvant (FIA) and
(b) Freund's complete adjuvent (FCA) respectively.
The delayed hypersensitivity was measured by subcutaneous reaction three weeks thereafter, by injecting 5 mg of ovalbumine and of 5 and 10 μg of either the substance BB and the muramyl-dipeptide in the dermis of the animals.

[2] = system: Female Hartley guinea-pigs; assay: Adjuvant activity: rates of antibodies with respect to ovalbumin after injection with incomplete Freund adjuvant and ovalbumin; assay type: in vivo, guinea-pig; settings: Table 2; dose 25 μg/animal
Experimental: Female Hartley guinea-pigs of 300-350 g received, in the plantar pad of each of the two rear paws, an emulsion composed of equal parts of incomplete Freund adjuvant and a physiological solution containing ovalbumin (5 mg/guinea-pig) and the preparation to be tested. The incomplete Freund adjuvant (FIA) (that is to say not containing mycobacteria), is the complete adjuvant (FCA) marketed by the DIFCO company were used as controls.
The rates of antibodies with respect to ovalbumin were determined three weeks after injection. The antibody rate is expressed in μg/ml of serum of the antigen-antibody precipitate at the point of equivalents.

[3] = system: Female Hartley guinea-pigs; assay: Delayed hypersensitivity to ovalbumin (cutaneous reaction); assay type: in vivo, guinea-pig; settings: Table 2, adjuvant dose 25 μg
Experimental: The delayed hypersensitivity to ovalbumin was measured by cutaneous reaction four weeks after injection; it is expressed by the diameter in millimeters of the erythema (E), of the induration (I) or the necrosis (N), forty-eight hours after sub-cutaneous injection of 10 or 100 μg of ovalbumin.

CC(=O)N[C@@H]1[C@@H](O[C@H](C)C(=O)N[C@@H](C)C(=O)N[C@H](CCC(=O)O)C(N)=O)[C@H](O)[C@@H](CO)O[C@H]1O [N-acetylmuramyl-L-Ala-D-Glu-NH2, 2-(2-acetamido-2-desoxy-3-O-D-glucopyranosyl)-D-propionyl-L-Ala-(γ-OH)-D-α-Glu NH2]
Toxicity (surrenalectomized mice): no detectable toxicity | Increase in vitro of the cytotoxicity of the macrophages with respect to the mastocytome (mastocytome): capable of increasing in vitro the cytotoxicity of the macrophages | Inhibition of the mastocytome increase (reduced incorporation of radioactive thymidine compared to controls) [1]: 84% | Delayed hypersensitivity reaction to the substance (guinea pigs): dit not induce any detectable reaction | Antibody/antiovalbumin, Average [2]: 5210 µg/mL | Antibody/antiovalbumin, animal 1 [2]: 5280 µg/mL | Antibody/antiovalbumin, animal 2 [2]: 6000 µg/mL | Antibody/antiovalbumin, animal 3 [2]: 2960 µg/mL | Antibody/antiovalbumin, animal 4 [2]: 6880 µg/mL | Antibody/antiovalbumin, animal 5 [2]: 4960 µg/mL | Delayed Hypersensitivity, erythema (E) ([3]; 10 μg ovalbumin injection): 9 millimeters | Delayed Hypersensitivity, erythema (E) ([3]; 100 μg ovalbumin injection): 17 millimeters
